The values below come from patent publication US9179678B2, “Substituted [1,2,4]triazoles and substituted tetrazoles as herbicides” (SYNGENTA LIMITED, priority 2012, dated 2015).

Holding throughout (format): in vivo
Experiment [1] concerns Ipomoea hederacea (IPOHE). Description: Post-emergence glasshouse herbicide test. As to conditions: POST Application, 1000 g/h, after 13 days. The protocol:
(§1) Seeds of a variety of test species are sown in standard soil in pots (Alopecurus myosuroides (ALOMY), Setaria faberi (SETFA), Echinochloa crus-galli (ECHCG), Solanum nigrum (SOLNI), Amaranthus retoflexus (AMARE), Ipomoea hederacea (IPOHE)). After cultivation for one day (pre-emergence) or after 8 days cultivation (post-emergence) under controlled conditions in a glasshouse (at 24/16° C., day/night; 14 hours light; 65% humidity), the plants are sprayed with an aqueous spray solution derived from the formulation of the technical active ingredient in acetone/water (50:50) solution containing 0.5% Tween 20 (polyoxyethelyene sorbitan monolaurate, CAS RN 9005-64-5). Compounds ae applied at 1000 g/h. The test plants are then grown in a glasshouse under controlled conditions in a glasshouse (at 24/16° C., day/night; 14 hours light; 65% humidity) and watered twice daily. After 13 days for pre and post-emergence, the test is evaluated for the percentage damage caused to the plant. The biological activities are shown in the following table on a five point scale (5=80-100%; 4=60-79%; 3=40-59%; 2=20-39%; 1=0-19%).

Experiment [2] deals with Amaranthus retoflexus (AMARE). As to the kind of experiment: Post-emergence glasshouse herbicide test. As to conditions: POST Application, 1000 g/h, after 13 days. The protocol:
as §1

For experiment [3], the system named is Solanum nigrum (SOLNI). As to the kind of experiment: Post-emergence glasshouse herbicide test. Conditions: POST Application, 1000 g/h, after 13 days. The protocol: as §1
In experiment [4] the test system is Echinochloa crus-galli (ECHCG). As to the kind of experiment: Post-emergence glasshouse herbicide test. Conditions: POST Application, 1000 g/h, after 13 days. The method, then:
as §1

The subject of experiment [5] is Alopecurus myosuroides (ALOMY). As to the kind of experiment: Post-emergence glasshouse herbicide test. As to conditions: POST Application, 1000 g/h, after 13 days. The method, then:
as §1

Experiment [6] deals with Ipomoea hederacea (IPOHE). As to the kind of experiment: Pre-emergence glasshouse herbicide test. Conditions: PRE Application, 1000 g/h, after 13 days. The protocol: as §1
Experiment [7] has as its system Amaranthus retoflexus (AMARE). As to the kind of experiment: Pre-emergence glasshouse herbicide test. Conditions: PRE Application, 1000 g/h, after 13 days. The protocol:
as §1

Experiment [8] has as its system Solanum nigrum (SOLNI). Description: Pre-emergence glasshouse herbicide test. As to conditions: PRE Application, 1000 g/h, after 13 days. The protocol: as §1
For experiment [9], the system named is Setaria faberi (SETFA). As to the kind of experiment: Pre-emergence glasshouse herbicide test. Conditions: PRE Application, 1000 g/h, after 13 days. The protocol: as §1
Experiment [10] concerns Echinochloa crus-galli (ECHCG). As to the kind of experiment: Pre-emergence glasshouse herbicide test. Conditions: PRE Application, 1000 g/h, after 13 days. The method, then: as §1
The subject of experiment [11] is Alopecurus myosuroides (ALOMY). Description: Pre-emergence glasshouse herbicide test. As to conditions: PRE Application, 1000 g/h, after 13 days. The method, then:
as §1

The test system of experiment [12] is Setaria faberi (SETFA). As to the kind of experiment: Post-emergence glasshouse herbicide test. As to conditions: POST Application, 1000 g/h, after 13 days. The protocol: as §1, with “Compounds ae applied at 1000 g/h.” left out

For the compound `Cn1nnnc1NC(=O)c1nc2cc(C(F)(F)F)ccc2n(C)c1=O` [Compound 3.001], the results for the “percentage damage caused to the plant, IPOHE” value in [1] and in [6] were 3 (3=40-59%) and 1 (1=0-19%), respectively. For the same compound, the “percentage damage caused to the plant, AMARE” value in experiment [2] is reported as 4 (4=60-79%); in experiment [7], 2 (2=20-39%). For the same compound, the “percentage damage caused to the plant, SOLNI” value in the experiment on Solanum nigrum (SOLNI) [3] is recorded as 4 (4=60-79%); in the experiment with Solanum nigrum (SOLNI) [8], 3 (3=40-59%). For the same compound, the “percentage damage caused to the plant, ECHCG” value in experiment [4] and in experiment [10] was 2 (2=20-39%) each time. The “percentage damage caused to the plant, ALOMY” value in experiment [5] and in [11] was 1 (1=0-19%) each time. Moreover, the “percentage damage caused to the plant, SETFA” value with Setaria faberi (SETFA) [9] is reported as 1 (1=0-19%); in the experiment on Setaria faberi (SETFA) [12], 2 (2=20-39%).

With `Cn1nnnc1NC(=O)c1nc2cccnc2n(C)c1=O` [Compound 4.001], the “percentage damage caused to the plant, IPOHE” value in [1] was 4 (4=60-79%); in experiment [6], 3 (3=40-59%). For the same compound, the “percentage damage caused to the plant, AMARE” value in experiment [2] and in experiment [7] was 5 (5=80-100%) throughout. Also, the “percentage damage caused to the plant, SOLNI” value in the experiment with Solanum nigrum (SOLNI) [3] and with Solanum nigrum (SOLNI) [8] was 5 (5=80-100%) throughout. For the same compound, the “percentage damage caused to the plant, ECHCG” value is given as 5 (5=80-100%) in [4] and 4 (4=60-79%) in [10]. Moreover, the “percentage damage caused to the plant, ALOMY” value in experiment [5] and in experiment [11] was 1 (1=0-19%) each time. In addition, the results for the “percentage damage caused to the plant, SETFA” value in the experiment on Setaria faberi (SETFA) [9] and in the experiment with Setaria faberi (SETFA) [12] were 1 (1=0-19%) and 2 (2=20-39%), respectively.

In the case of `Cn1nnnc1NC(=O)c1nc2cccnc2n(-c2ccccc2)c1=O` [Compound 4.002], the “percentage damage caused to the plant, IPOHE” value in experiment [1] and in experiment [6] was 1 (1=0-19%) in each case. The “percentage damage caused to the plant, AMARE” value in [2] was 2 (2=20-39%); in [7] it was 1 (1=0-19%). The “percentage damage caused to the plant, SOLNI” value was 3 (3=40-59%) in the experiment with Solanum nigrum (SOLNI) [3] and 1 (1=0-19%) with Solanum nigrum (SOLNI) [8]. The “percentage damage caused to the plant, ECHCG” value in experiment [4] and in [10] was 1 (1=0-19%) each time. For the same compound, the “percentage damage caused to the plant, ALOMY” value in experiment [5] and in experiment [11] was 1 (1=0-19%) in each case. The “percentage damage caused to the plant, SETFA” value with Setaria faberi (SETFA) [9] and in the experiment on Setaria faberi (SETFA) [12] was 1 (1=0-19%) each time.

In the case of `Cn1nnnc1NC(=O)c1nc2ccccc2n(C)c1=O` [Compound 5.002], the “percentage damage caused to the plant, IPOHE” value in [1] and in [6] was 5 (5=80-100%) throughout. Moreover, the “percentage damage caused to the plant, AMARE” value in experiment [2] and in [7] was 5 (5=80-100%) in each case. Also, the “percentage damage caused to the plant, SOLNI” value in the experiment on Solanum nigrum (SOLNI) [3] and in the experiment on Solanum nigrum (SOLNI) [8] was 5 (5=80-100%) each time. Further, the figures for the “percentage damage caused to the plant, ECHCG” value in experiment [4] and in experiment [10] were 4 (4=60-79%) and 5 (5=80-100%), respectively. The “percentage damage caused to the plant, ALOMY” value in [5] and in experiment [11] was 1 (1=0-19%) in each case. The “percentage damage caused to the plant, SETFA” value in the experiment with Setaria faberi (SETFA) [9] and in the experiment with Setaria faberi (SETFA) [12] was 1 (1=0-19%) in each case.

Regarding `Cc1cccc(-n2c(=O)c(C(=O)Nc3nnnn3C)nc3ccccc32)n1` [Compound 5.003], the “percentage damage caused to the plant, IPOHE” value in experiment [1] and in [6] was 5 (5=80-100%) each time. The “percentage damage caused to the plant, AMARE” value in [2] and in experiment [7] was 5 (5=80-100%) throughout. Moreover, the “percentage damage caused to the plant, SOLNI” value in the experiment with Solanum nigrum (SOLNI) [3] and in the experiment with Solanum nigrum (SOLNI) [8] was 5 (5=80-100%) throughout. Also, the “percentage damage caused to the plant, ECHCG” value in experiment [4] and in experiment [10] was 5 (5=80-100%) each time. Further, the “percentage damage caused to the plant, ALOMY” value in [5] and in [11] was 5 (5=80-100%) in each case. Also, the “percentage damage caused to the plant, SETFA” value in the experiment on Setaria faberi (SETFA) [9] and in the experiment on Setaria faberi (SETFA) [12] was 5 (5=80-100%) each time.

With `Cn1nnnc1NC(=O)c1nc2ccccc2n(-c2ccccc2)c1=O` [Compound 5.004], the “percentage damage caused to the plant, IPOHE” value in experiment [1] and in experiment [6] was 5 (5=80-100%) in each case. For the same compound, the “percentage damage caused to the plant, AMARE” value in experiment [2] and in experiment [7] was 5 (5=80-100%) in each case. Further, the “percentage damage caused to the plant, SOLNI” value in the experiment with Solanum nigrum (SOLNI) [3] and in the experiment on Solanum nigrum (SOLNI) [8] was 5 (5=80-100%) each time. Besides, the “percentage damage caused to the plant, ECHCG” value in experiment [4] was 3 (3=40-59%); in experiment [10], 5 (5=80-100%). Moreover, the “percentage damage caused to the plant, ALOMY” value is recorded as 2 (2=20-39%) in experiment [5] and 3 (3=40-59%) in [11]. In addition, the “percentage damage caused to the plant, SETFA” value in the experiment with Setaria faberi (SETFA) [9] is on record as 4 (4=60-79%); in the experiment on Setaria faberi (SETFA) [12] it was 2 (2=20-39%).

`Cn1nnnc1NC(=O)c1nc2ccccc2n(-c2ccsc2)c1=O` [Compound 5.005]: the “percentage damage caused to the plant, IPOHE” value in experiment [1] and in experiment [6] was 5 (5=80-100%) each time. Also, the “percentage damage caused to the plant, AMARE” value in [2] and in experiment [7] was 5 (5=80-100%) in each case. Further, the “percentage damage caused to the plant, SOLNI” value in the experiment on Solanum nigrum (SOLNI) [3] and in the experiment on Solanum nigrum (SOLNI) [8] was 5 (5=80-100%) throughout. The “percentage damage caused to the plant, ECHCG” value in experiment [4] and in experiment [10] was 5 (5=80-100%) each time. Also, the “percentage damage caused to the plant, ALOMY” value in [5] and in experiment [11] was 2 (2=20-39%) throughout. In addition, the figures for the “percentage damage caused to the plant, SETFA” value in the experiment with Setaria faberi (SETFA) [9] and in the experiment on Setaria faberi (SETFA) [12] were 3 (3=40-59%) and 5 (5=80-100%), respectively.

Take `Cn1nnnc1NC(=O)c1nc2ccc(C(F)(F)F)cc2n(-c2ccccc2)c1=O` [Compound 5.006]: the “percentage damage caused to the plant, IPOHE” value in experiment [1] was 5 (5=80-100%); in experiment [6], 4 (4=60-79%). Moreover, the “percentage damage caused to the plant, AMARE” value in experiment [2] and in experiment [7] was 5 (5=80-100%) each time. Besides, the “percentage damage caused to the plant, SOLNI” value with Solanum nigrum (SOLNI) [3] and in the experiment with Solanum nigrum (SOLNI) [8] was 5 (5=80-100%) throughout. Besides, the “percentage damage caused to the plant, ECHCG” value in [4] and in experiment [10] was 4 (4=60-79%) each time. Moreover, the “percentage damage caused to the plant, ALOMY” value in experiment [5] and in [11] was 3 (3=40-59%) each time. Besides, the “percentage damage caused to the plant, SETFA” value is listed as 3 (3=40-59%) with Setaria faberi (SETFA) [9] and 4 (4=60-79%) with Setaria faberi (SETFA) [12].

On to `Cn1nnnc1NC(=O)c1nc2cc(Cl)ccc2n(-c2ccccc2)c1=O` [Compound 5.007], for which the “percentage damage caused to the plant, IPOHE” value in experiment [1] and in experiment [6] was 5 (5=80-100%) in each case. Besides, the “percentage damage caused to the plant, AMARE” value in [2] and in [7] was 5 (5=80-100%) throughout. Moreover, the “percentage damage caused to the plant, SOLNI” value in the experiment with Solanum nigrum (SOLNI) [3] and in the experiment with Solanum nigrum (SOLNI) [8] was 5 (5=80-100%) in each case. The “percentage damage caused to the plant, ECHCG” value in experiment [4] and in [10] was 2 (2=20-39%) in each case. In addition, the “percentage damage caused to the plant, ALOMY” value in experiment [5] and in experiment [11] was 2 (2=20-39%) each time. Moreover, the “percentage damage caused to the plant, SETFA” value with Setaria faberi (SETFA) [9] and in the experiment with Setaria faberi (SETFA) [12] was 5 (5=80-100%) in each case.
